Data reported in patent US10865216B2, “Tricyclic Gyrase inhibitors” (MERCK SHARP & DOHME CORP., priority 2012, dated 2020).
Converted amounts (≈) assume the structure as drawn.

Experiments:
[1] = test system: E. coli ATCC 25922; assay: MIC, E. coli ATCC 25922; type: cell-based; conditions: Alamar Blue read after overnight incubation at 35° C.; for MIC Ec: E. coli; for MIC: Escherichia coli, ATCC25922, E. coli, read-out: MIC Ec
[2] = test system: S. aureus ATCC 13709; assay: MIC, S. aureus ATCC 13709; type: cell-based; conditions: Alamar Blue read after overnight incubation at 35° C.; for MIC Sa: S. aureus; for MIC: Staphylococcus aureus, ATCC13709, S. aureus, read-out: MIC Sa

SMILES | MIC Ec [1] [µg/mL] | MIC Sa [2] [µg/mL] | MIC [1] [µg/mL] | MIC [2] [µg/mL]
CNc1cccc2c1[nH]c1nc(Sc3cnc4ccc[n+]([O-])c4c3)nc(N3C[C@@H]4[C@H](C3)[C@@]4(N)C(N)=O)c12 [Compound 1.19] | >64 | >64 | – | –
CNc1cccc2c1[nH]c1nc(Sc3cnc4ccc[n+]([O-])c4c3)nc(N3CC(CN)C3)c12 [Compound 1.20] | – | – | 16 (≈ 34.9 µM) | 4 (≈ 8.72 µM)
CNc1cccc2c1[nH]c1nc(Sc3cnc4ccc[n+]([O-])c4c3)nc(N3CC(CNC(=O)c4cn(C)nc4C(F)(F)F)C3)c12 [Compound 1.21] | – | – | > 64 | ≤ 0.5
CNc1cccc2c1[nH]c1nc(Sc3cncc(S(=O)(=O)N(C)C)c3)nc(N3CC4C(N)C4C3)c12 (stereo not shown) [Compound 1.22] | – | – | 8 (≈ 15.7 µM) | 1 (≈ 1.96 µM)
CNc1cccc2c1[nH]c1nc(Sc3cnc4ccc[n+]([O-])c4c3)nc(N3CC4C(N)C4C3)c12 (stereo not shown) [Compound 1.23] | ≤0.5 | ≤0.5 | – | –
CNc1cccc2c1[nH]c1nc(Sc3cnc4cccnc4c3)nc(N3CC4C(N)C4C3)c12 (stereo not shown) [Compound 1.24] | 1 (≈ 2.2 µM) | ≤0.5 | – | –
CNc1cccc2c1[nH]c1nc(Sc3cnc4cccnc4c3)nc(N3CCC4(CC4N)C3)c12 (stereo not shown) [Compound 1.25] | 4 (≈ 8.54 µM) | – | – | ≤ 0.5
CNc1cccc2c1[nH]c1nc(Sc3cnc4cccnc4c3)nc(N3CCC4(CC4N)C3)c12 (stereo not shown) [Compound 1.26] | 1 (≈ 2.13 µM) | ≤0.5 | – | –
CNc1cccc2c1[nH]c1nc(Sc3cnc4cccnc4c3)nc(N3CC(N)C4(CC4)C3)c12 (stereo not shown) [Compound 1.27] | – | – | 1 (≈ 2.13 µM) | ≤ 0.5
CNc1cccc2c1[nH]c1nc(Sc3cnc4cccnc4c3)nc(N3CC4CCCNC4C3)c12 (stereo not shown) [Compound 1.28] | – | – | 16 (≈ 33.2 µM) | 4 (≈ 8.29 µM)
CNc1cccc2c1[nH]c1nc(Sc3cnc4cccnc4c3)nc(N3CC(N)C3)c12 [Compound 1.29] | – | – | > 64 | 1 (≈ 2.33 µM)
CNc1cccc2c1[nH]c1nc(Sc3cnc4cccnc4c3)nc(N3CC4C(C3)C4(N)CO)c12 (stereo not shown) [Compound 1.30] | – | – | > 64 | 16 (≈ 33 µM)
CNc1cccc2c1[nH]c1nc(Sc3cc4ncccc4[n+]([O-])c3)nc(N3C[C@@H]4[C@@H](N)[C@@H]4C3)c12 [Compound 1.31] | – | – | ≤ 0.5 | ≤ 0.5
CNc1cccc2c1[nH]c1nc(Sc3cnc4ccc[n+]([O-])c4c3)nc(N3CC4CNC4C3)c12 (stereo not shown) [Compound 1.32] | – | – | 4 (≈ 8.5 µM) | ≤ 0.5
CNc1cccc2c1[nH]c1nc(Sc3cnc4ccc[n+]([O-])c4c3)nc(N3CC(C4(N)CC4)C3)c12 [Compound 1.33] | – | – | 4 (≈ 8.25 µM) | ≤ 0.5
CNc1cccc2c1[nH]c1nc(Sc3cnc4ccc[n+]([O-])c4c3)nc(N3CCC[C@@H](N)C3)c12 [Compound 1.34] | – | – | 4 (≈ 8.46 µM) | 1 (≈ 2.12 µM)
CNc1cccc2c1[nH]c1nc(Sc3cnc4ccc[n+]([O-])c4c3)nc(N3CC[C@@H](C)[C@@H](N)C3)c12 [Compound 1.35] | – | – | 2 (≈ 4.11 µM) | ≤ 0.5
CNc1cccc2c1[nH]c1nc(Sc3cncc(S(=O)(=O)NC)c3)nc(N3CC4C(N)C4C3)c12 (stereo not shown) [Compound 1.36] | – | – | 4 (≈ 8.05 µM) | 2 (≈ 4.03 µM)
CNc1cccc2c1[nH]c1nc(Sc3cnc4cccnc4c3)nc(N3CCC[C@@H](N)C3)c12 [Compound 1.37] | – | – | 4 (≈ 8.76 µM) | 1 (≈ 2.19 µM)
CNc1cccc2c1[nH]c1nc(Sc3cnc4ccc[n+]([O-])c4c3)nc(N3CCC4(CC4N)C3)c12 (stereo not shown) [Compound 1.38] | – | – | 2 (≈ 4.13 µM) | ≤ 0.5
CNc1cccc2c1[nH]c1nc(Sc3cnc4ccc[n+]([O-])c4c3)nc(N3CCC4(CC4N)C3)c12 (stereo not shown) [Compound 1.39] | 1 (≈ 2.06 µM) | ≤0.5 | – | –
CNc1cccc2c1[nH]c1nc(Sc3cnc4ccc[n+]([O-])c4c3)nc(N3CC(N)C4(CC4)C3)c12 (stereo not shown) [Compound 1.40] | – | – | 1 (≈ 2.06 µM) | ≤ 0.5
CNc1cccc2c1[nH]c1nc(Sc3cncc(S(N)(=O)=O)c3)nc(N3CC4C(N)C4C3)c12 (stereo not shown) [Compound 1.41] | – | – | 8 (≈ 16.6 µM) | 4 (≈ 8.29 µM)
CNc1cccc2c1[nH]c1nc(Sc3cncc(S(=O)(=O)NCCO)c3)nc(N3CC4C(N)C4C3)c12 (stereo not shown) [Compound 1.42] | – | – | 32 (≈ 60.8 µM) | 8 (≈ 15.2 µM)
CNc1cccc2c1[nH]c1nc(Sc3cncnc3)nc(N3CC4C(N)C4C3)c12 (stereo not shown) [Compound 1.43] | – | – | 8 (≈ 19.8 µM) | 2 (≈ 4.94 µM)

SMILES | MIC Ec [1] [µg/mL] | MIC Sa [2] [µg/mL] | MIC [1] [µg/mL] | MIC [2] [µg/mL]
CNc1cccc2c1[nH]c1nc(Sc3cncnc3)nc(N3CC(N)C4(CC4)C3)c12 (stereo not shown) [Compound 1.44] | – | – | 2 (≈ 4.78 µM) | 1 (≈ 2.39 µM)
CNc1cccc2c1[nH]c1nc(Sc3cnc4cccnc4c3)nc(N3CCCCC(N)C3)c12 (stereo not shown) [Compound 1.45] | – | – | 4 (≈ 8.5 µM) | 1 (≈ 2.12 µM)
CNc1cccc2c1[nH]c1nc(Sc3cnc4cccnc4c3)nc(N3CCNCC3)c12 [Compound 1.46] | – | – | 4 (≈ 9.04 µM) | 2 (≈ 4.52 µM)
CNc1cccc2c1[nH]c1nc(Sc3cnc4cccnc4c3)nc(N3CC4CNC(C4)C3)c12 (stereo not shown) [Compound 1.47] | – | – | 2 (≈ 4.27 µM) | ≤ 0.5
CNc1cccc2c1[nH]c1nc(Sc3cnc4cccnc4c3)nc(N3CCC(CN)C3)c12 (stereo not shown) [Compound 1.48] | – | – | 2 (≈ 4.38 µM) | ≤ 0.5
CNc1cccc2c1[nH]c1nc(Sc3cnc4ccc[n+]([O-])c4c3)nc(N3CC4C(N)C4C3)c12 (stereo not shown) [Compound 1.49] | ≤0.5 | ≤0.5 | – | –
CNc1cc(F)cc2c1[nH]c1nc(Sc3cnc4ccc[n+]([O-])c4c3)nc(N3CC4C(N)C4C3)c12 (stereo not shown) [Compound 1.50] | – | – | ≤ 0.5 | ≤ 0.5
CNc1cc(F)cc2c1[nH]c1nc(Sc3cnc4cccnc4c3)nc(N3CC4C(N)C4C3)c12 (stereo not shown) [Compound 1.51] | – | – | ≤ 0.5 | ≤ 0.5
CNc1cccc2c1[nH]c1nc(Sc3cnc4ccc[n+]([O-])c4c3)nc(N3CC4C(C3)C4NC(=O)[C@H](C)N)c12 (stereo partly shown) [Compound 1.52] | – | – | 16 (≈ 29.5 µM) | 1 (≈ 1.85 µM)
CNc1cccc2c1[nH]c1nc(Sc3cnc4cccnc4c3)nc(N3CCC(CO)C3)c12 (stereo not shown) [Compound 1.53] | – | – | 8 (≈ 17.5 µM) | ≤ 0.5
CNc1cccc2c1[nH]c1nc(Sc3cnc4cccnc4c3)nc(N3CCN(c4cnccn4)CC3)c12 [Compound 1.54] | – | – | > 64 | ≤ 0.5
CNc1cccc2c1[nH]c1nc(Sc3cnc4cccnc4c3)nc(N3CC4CNCC4C3)c12 (stereo not shown) [Compound 1.55] | – | – | 8 (≈ 17.1 µM) | 1 (≈ 2.13 µM)
CNc1cccc2c1[nH]c1nc(Sc3cnc4cccnc4c3)nc(N3CCC4(CCNCC4)C3)c12 [Compound 1.56] | – | – | 32 (≈ 64.4 µM) | 4 (≈ 8.05 µM)
CNc1cccc2c1[nH]c1nc(Sc3cnc4ccc[n+]([O-])c4c3)nc(N3CC4CC3CN4)c12 (stereo not shown) [Compound 1.57] | – | – | > 32 | > 32
CNc1ccc(C)c2c1[nH]c1nc(Sc3cnc4cccnc4c3)nc(N3CC4C(N)C4C3)c12 (stereo not shown) [Compound 1.58] | – | – | 8 (≈ 17.1 µM) | ≤ 0.5
CNc1cccc2c1[nH]c1nc(Sc3cnc4cccnc4c3)nc(N3CCC(C)(N)C3)c12 (stereo not shown) [Compound 1.59] | – | – | 4 (≈ 8.76 µM) | 1 (≈ 2.19 µM)
CNc1cccc2c1[nH]c1nc(Sc3cnc4cccnc4c3)nc(N3C[C@@H](N)C[C@H]3C)c12 [Compound 1.60] | – | – | 2 (≈ 4.38 µM) | 0.5 (≈ 1.1 µM)
CNc1cccc2c1[nH]c1nc(Sc3cnc4cccnc4c3)nc(N3C[C@H](N)C[C@H]3C)c12 [Compound 1.61] | – | – | 64 (≈ 140 µM) | 8 (≈ 17.5 µM)
CNc1cc(F)cc2c1[nH]c1nc(Sc3cnc4cccnc4c3)nc(N3CC(N)C4(CC4)C3)c12 (stereo not shown) [Compound 1.62] | – | – | ≤ 0.5 | ≤ 0.5
CNc1cc(F)cc2c1[nH]c1nc(Sc3cnc4ccc[n+]([O-])c4c3)nc(N3CC(N)C4(CC4)C3)c12 (stereo not shown) [Compound 1.63] | – | – | ≤ 0.5 | ≤ 0.5
CNc1cc(F)cc2c1[nH]c1nc(Sc3cnc4ccc[n+]([O-])c4c3)nc(N3CCC4(CC4N)C3)c12 (stereo not shown) [Compound 1.64] | – | – | ≤ 0.5 | ≤ 0.5
CNc1cc(F)cc2c1[nH]c1nc(Sc3cnc4ccc[n+]([O-])c4c3)nc(N3CCC4(CC4N)C3)c12 (stereo not shown) [Compound 1.65] | ≤0.5 | ≤0.5 | – | –
CNc1cccc2c1[nH]c1nc(Sc3cnc4ccc[n+]([O-])c4c3)nc(N3CC4C(N)C4C3)c12 (stereo not shown) [Compound 1.66] | ≤0.5 | ≤0.13 | – | –
CNc1cccc2c1[nH]c1nc(Sc3cnc4cccnc4c3)nc(N3CCN(C(C)=O)CC3)c12 [Compound 1.67] | – | – | > 64 | ≤ 0.5
CNc1cccc2c1[nH]c1nc(Sc3cnc4cccnc4c3)nc(N3C[C@H](N)C[C@@H]3CO)c12 [Compound 1.68] | – | – | 32 (≈ 67.7 µM) | 16 (≈ 33.9 µM)
